Results: publication PMC7617456, “Cryptosporidium lysyl-tRNA synthetase inhibitors define the interplay between solubility and permeability required to achieve efficacy” (Science translational medicine, 2024)
pEC50: −log10 of the molar value. ≈ marks a conversion by molar mass, not a printed value. Where two headings read alike, the source gives them in different places.

Experiments:
C. parvum = experiment: microbe, parasite or virus in culture; type: cell-based, Cryptosporidium parvum
[1] = Aqueous (kinetic) solubility by UHPLC; type: physicochemical; conditions: PBS pH 7.4, UHPLC
Procedure: As previously described.(27) […]
samples were prepared by adding 5 µL stock to PBS pH 7.4 (195 µL). This solution was mixed […]
The solubility test samples were […]
vacuum ﬁ ltered (Millipore Multiscreen HTS ﬁ lter, 96-well format) to remove any undissolved […]
material. The ﬁ ltrate was analyzed for dissolved drug compound using a truncated UHPLC […]
methodology. A calibration solution was prepared for each test compound. The 10 mM stock […]
solution was diluted in DMSO to give a 500 µM solution. This was further diluted with 50:50 […]
acetonitrile:water to give a 50 µM solution. Aliquots (0.2, 2.0, and 5.0 µL) of this 50 µM solution were injected onto the UHPLC system, and the areas of the resultant peaks were […]
integrated to produce a calibration line. Aliquots of the test sample ﬁ ltrate (0.4 and 5.0 µL) […]
were injected onto the UHPLC system and the resultant test compound peak areas quantiﬁ ed […]
using the calibration line. […]

PAMPA permeability = type: in vitro ADME; conditions: for Papp at 5 h, 10 µM: PAMPA, pH 7.4, pH 7.4; for PAMPA Papp: pH 7.4
Procedure: Solubility test samples were prepared by adding 5 μL stock to PBS pH 7.4 (195 μL). […] […] vacuum […] (Millipore Multiscreen HTS fi lter, 96-well format) to remove any undissolved material. The […] analyzed for dissolved drug compound using a truncated UHPLC methodology. A calibration solution was prepared for each test compound. […] Aliquots of the test sample […] (0.4 and 5.0 μL) were injected onto the UHPLC system and the resultant test compound peak areas quantifi ed […] PAMPA per meability As previously described.(28) The permeability assay was performed using a 96-well precoated BD Gentest PAMPA plate (BD Biosciences). Each well was divided into two chambers: donor and acceptor, separated by a lipid-oil-lipid trilayer constructed in a porous fi lter. […] Stock solutions (5 mM) of the compound were prepared in DMSO. […] The compound dissolved in phosphate buffered saline was added to the donor side of the membrane, and phosphate-buffered saline without the compound was added to the acceptor side. The PAMPA plate was left at room temperature for 5 h then an aliquot (100 μL) was removed from both acceptor and donor compartments and mixed with acetonitrile (80 μL) containing an internal standard: donepezil at 50 ng/mL. The samples were centrifuged (10 min, 5 °C, 3270×g) to sediment lipids and sealed prior to UPLC-MS/MS analysis using a Quattro Premier XE (Waters Corp, USA). Recovery of the compound from donor and acceptor wells was calculated, and data were only accepted when recovery exceeded 70%.

[2] = Biopharmaceutical Classification System (BCS) categorization; type: physicochemical; conditions: cut-offs solubility 100 μM, permeability 30 nm/s; Table S1 prints 1-4 for I-IV
Text: To investigate our key parameters, solubility and permeability, we used the Biopharmaceutical Classification System (BCS)([13]) to categorize our tool compounds in a methodical way. […] Restricting either of these properties is likely to have a rate-determining effect on absorption (Class II, purple; Class III, teal). Using the BCS to prioritize compounds for in vivo studies allowed us to systematically examine these individual property combinations and determine whether modulating solubility or permeability influenced compound efficacy. Our hypothesis was that slow absorption due to suboptimal solubility or permeability (i.e. Class II or Class III) would maximize compound concentration at the biophase following a single oral dose.
(A) Schematic of Biopharmaceutical Classification System (BCS). (B) Aqueous solubility and Parallel Artificial Membrane Permeability Assay (PAMPA) measurements of tool compounds from each BCS class. Data are means of two technical replicates. Solubility and permeability cut-offs were defined at 100 μM and 30 nm/s respectively. Raw data reported for all tool compounds in Table S1. (C) NOD SCID Gamma mice were infected with wild type C. parvum. Vehicle, positive control, or tool compound was administered via oral gavage starting day 7 post infection (PI) for 7 days (gray box indicates treatment period). Fecal samples were collected on days indicated by arrows. Fecal samples were collected from individual mice (4 animals per treatment group) and analyzed by qPCR to quantify parasite shedding (oocysts/g). (D) Log reduction in oocyst shedding measured on day 14 PI vs day 21 PI for tool compounds (colored by BCS class) dosed orally at either 30 or 50 mg/kg twice a day (BID) for 7 days in NOD SCID Gamma mice. […] Mean oocyst shedding was determined for each group of n=4 mice, for all compounds tested. Log reduction in oocyst shedding was calculated as log (mean oocysts on day 7) – log (mean oocysts on day 14 or 21).

[3] = Cryptosporidium parvum, HCT-8, 48 h, read-out: C. parvum EC50, co-cultured with HCT-8 cells for 48 hrs
[4] = Cryptosporidium parvum, HCT-8, read-out: C. parvum EC90
[5] = 25 °C, aqueous buffer, kinetic from dmso stock
[6] = calculated from the average EC50 and hill slope, read-out: C. parvum EC90
[7] = co-cultured with HCT-8 cells for 48 hrs, read-out: C. parvum EC50

Row | SMILES | pEC50 (C. parvum; [3]) | EC90 (C. parvum; [4]) [nM] | solubility at 24 h [1, 5] [µM] | Papp at 5 h, 10 µM (PAMPA permeability) [×10⁻⁶ cm/s] | BCS Class [2] | EC90 (C. parvum; [6]) [nM] | pEC50 (C. parvum; [7]) | solubility at 24 h [1] [µM] | PAMPA Papp (PAMPA permeability) [×10⁻⁶ cm/s]
1 | Nc1cc(F)cc2c(=O)cc(C(=O)NCC3(O)CCCCC3)oc12 [DDD229] | 7.52 | 80 | 1.9 (≈ 0.635 µg/mL) | 1.9 | 4 |  |  |  | 
2 | Nc1nc2c(c(C(F)F)n1)C(=O)N(C[C@@H]1CCC[C@H](C(F)(F)F)C1)C2 [DDD352] |  |  |  |  | 2 | 60 | 7.70 | 32 (≈ 11.7 µg/mL) | 19.3
3 | Cc1nc(N)nc2c1C(=O)N(C[C@@H]1CCC[C@H](C(F)(F)F)C1)C2 [DDD478] |  |  |  |  | 2 | 40 | 7.70 | 57 (≈ 18.7 µg/mL) | 13.8
4 | COc1cc(NS(=O)(=O)CCN2CCCC2)c2oc(C(=O)N[C@@H](C)C3CCCCC3)cc(=O)c2c1 [DDD582] | 6.82 | 370 | 225 (≈ 114 µg/mL) | 1.6 | 3 |  |  |  | 
5 | COc1ccc2oc(C(=O)NCC3(O)CCCCC3)cc(=O)c2c1 [DDD583] | 6.85 | 330 | 33 (≈ 10.9 µg/mL) | 11.5 | 2 |  |  |  | 
6 | O=C(NCC1CCCCC1)c1cc(=O)c2cc(F)c(F)c(O)c2o1 [DDD690] | 6.72 | 370 | 226 (≈ 76.2 µg/mL) | 3.2 | 1 |  |  |  | 
7 | O=C(NCC1CCCCO1)c1cc(=O)c2ccc(F)c(O)c2o1 (stereo not shown) [DDD695] | 7.10 | 180 | 236 (≈ 75.8 µg/mL) | 1.1 | 3 |  |  |  | 
8 | O=C(NCC1CCCCC1)c1cc(=O)c2ccc(F)c(O)c2o1 [DDD714] | 7.52 | 50 | 377 (≈ 120 µg/mL) | 4.3 | 1 |  |  |  | 
9 | O=C(NCC1(O)CCCCC1)c1cc(=O)c2ccc(F)c(O)c2o1 [DDD844] | 6.77 | 460 | 63 (≈ 21.1 µg/mL) | 0.17 | 4 |  |  |  | 
10 | Nc1nc2c(c(C(F)(F)F)n1)C(=O)N(CC1CCCC3(CC3)C1)C2 (stereo not shown) [DDD909] |  |  |  |  | 2 | 130 | 7.15 | 14 (≈ 4.76 µg/mL) | 17.4
11 | O=C(NCC1(F)CCCCC1)c1cc(=O)c2ccc(F)c(O)c2o1 [DDD993] | 7.00 | 150 | 234 (≈ 78.9 µg/mL) | 6.3 | 1 |  |  |  | 
